What was measured:
Format in all cases: cell-based, human
HCC-1806 cells = experiment: Live-cell phase-contrast microscopy of HCC-1806 cells; conditions: near confluent HCC-1806, 10 μM, 24 h
Description: FIG. 2A is an image showing apoptosis of HCC-1806 cells after treatment with a 5-nitrofuran-2-amide derivative compound 3d (above). Cells were treated with 3d (10 μM) for the indicated times, and cleavage of caspase-3 was determined by Western blotting. α-Tubulin was used as a loading control. The data shown are representative of 3 independent studies. FIGS. 2B and 2C are live-cell phase-contrast images (magnification 10×) showing treatment with DMSO and (10 μM) 5-nitrofuran-2-amide derivative compound 3d respectively for 24 h. To determine whether the reduction in TNBC cell viability by the 5-nitrofuran-2-amide derivatives was due to the induction of apoptosis, the inventor analyzed cleavage of caspase-3, a critical executioner of apoptosis, in HCC-1806 cells treated with compound 3d. […] To confirm this, HCC-1806 cells were cultured to near confluence and treated with 10 μM 3d or DMSO for 24 h and then imaged by live-cell phase-contrast microscopy.

[1] = test system: XBP1 mRNA splicing (IRE1α pathway); experiment: XBP1 mRNA splicing by RT-PCR in HCC-1806 cells; conditions: HCC-1806, 3d 10 μM, at 2~24 h (11% at 0 h)
Description: FIG. 3E is a graph showing XBP1 mRNA levels in HCC-1806 cells treated with tunicamycin or a 5-nitrofuran-2-amide derivative compound 3d. HCC-1806 cells were treated with compound 3d (10 μM) or tunicamycin (Tm, 1 μg/mL) for the indicated times. XBP1 mRNA levels were analyzed by RT-PCR and the products were resolved by agarose gel electrophoresis. The full-length (unspliced, XBP1u) and spliced (XBP1s) forms of XBP1 mRNA are indicated. GAPDH mRNA was used as an internal control.
The percentage of XBP1s relative to total XBP1 was calculated as: (XBP1s/[XBP1s+XBP1u])×100%. The data shown are representative of 3 independent studies.
The inventor next asked whether the IRE1α and ATF6 branches of the unfolded protein response were also activated by compound 3d treatment of TNBC cells. […] XBP1 mRNA splicing, as measured by XBP1s levels, increased only slightly in the first 24 h after compound 3d treatment of HCC-1806 cells (from 11% of total XBP1 at 0 h to 15˜20% at 2˜24 h). […] Next, it was determined whether compound 3d activates the ATF6 pathway by evaluating its effect on the activity of an ER stress response elements (ERSE)-Luc reporter stably established in HEK293 cell line. […]

ATF4 protein = ATF4 protein by Western blotting; conditions: 10 μM, indicated times
Description: (§1) FIG. 3D is an image showing ATF4 and p-EIF2α protein levels after treatment with a 5-nitrofuran-2-amide derivative compound 3d. Cells were treated with compound 3d (10 μM) for the indicated times, and ATF4 and p-eIF2a protein levels were analyzed by Western blotting. α-Tubulin was used as a loading control. The data shown are representative of 3 independent studies.
(§2) Prolonged or severe ER stress activates CHOP expression primarily through the PERK branch of the unfolded protein response, although the IRE1α and ATF6 branches also contribute.^5, 18 The 5-nitrofuran-2-amide derivatives could induce CHOP expression by acting as an ER stressor that activates all three branches of unfolded protein response or by preferentially activating a select branch of unfolded protein response. To distinguish between these possibilities, the inventor investigated which branches of the unfolded protein response were affected by compound 3d. Activation of the PERK pathway by ER stress leads to phosphorylation of eIF2α, followed by activation of the transcription and translation of the transcription factor ATF4, a 5′-upstream ORF-containing gene, and ATF4-mediated CHOP expression.^5, 22 To determine whether the PERK pathway is involved in compound 3d-mediated CHOP induction, ATF4 expression and eIF2a phosphorylation in HCC-1806 cells by qRT-PCR and Western blotting were analyzed. […]

p-eIF2α = experiment: eIF2α phosphorylation by Western blotting; conditions: 10 μM, indicated times
Description: as §1, §2

In the case of CC1CCN(c2ccc(NC(=O)c3ccc([N+](=O)[O-])o3)cc2)CC1 [Compound 3d], the “cell death seen by phase-contrast imaging” value (HCC-1806 cells) is reported as “few cells were observed”, the “XBP1s, percentage of total XBP1” value [1] is reported as 15˜20% and the “ATF4 expression, protein” value (ATF4 protein) is reported as “significantly increased ATF4 expression”. For the same molecule, the “phosphorylation of eIF2α” value (p-eIF2α) was “substantially increased the phosphorylation of eIF2a”.
